Like-named read-outs stand apart in the source and are kept apart here.
System: amphetamine-induced symptoms
Assay: antagonism of amphetamine-induced symptoms in rats (block of d-amphetamine cage movement, rating scale)
Format: in vivo
Conditions: Rattus norvegicus, ip, i.p. test compound, rated one hour after amphetamine
Excerpt: The tranquilizing agents of the present invention are characterized by relief of such schizophrenic manifestations in humans as hallucinations, hostility, suspiciousness, emotional and social withdrawal, anxiety, agitation and tension. Standard procedures of detecting and comparing tranquilizing activity of compounds in this series and for which there is an excellent correlation with human efficacy is the antagonism of amphetamine-induced symptoms in rats test as taught by A. Weissman, et al., J. Pharmacol. Exp. Ther., 151, 339 (1966) and by Quinton, et al., Nature, 200, 178 (1963).
The effects of the compounds of the present invention on prominent amphetamine-induced symptoms were studied in rats by a rating scale modeled after the one reported by Quinton and Halliwell, and Weissman. Groups of five rats were placed in a covered plastic cage measuring approximately 26 cm. × 42 cm. × 16 cm. After a brief period of acclimation in the cage, the rats in each group were treated intraperitoneally (i.p.) with the test compound. […] On the basis of dose-response data after amphetamine it was possible to determine the effective dose of the compound necessary to antagonize or block the characteristic amphetamine behavior of cage movement for fifty percent of the rats tested (ED50). The time of rating chosen coincides with the peak action of amphetamine which is 60-80 min. after treatment with this agent.
Employing the above-described procedure, the following compounds were tested for their ability to block the behavior effects of amphetamine, the results being reported as the ED50 in mg./kg. at the indicated times: ##SPC25##

[1] = d-amphetamine sulfate 5 mg./kg. i.p. 1 hr. later, read-out: ED50 (dose antagonizing/blocking characteristic amphetamine cage movement in fifty percent of rats), 1 hr.
[2] = d-amphetamine sulfate 5 mg./kg. i.p. 5 hrs. later, read-out: ED50 (dose antagonizing/blocking characteristic amphetamine cage movement in fifty percent of rats), 5 hrs.

| Structure (SMILES) | ED50 [1] [mg/kg] | ED50 [2] [mg/kg] |
| --- | --- | --- |
| CN1Cc2c(n(-c3ccc(F)cc3)c3ccc(F)cc23)C1 [F F CH3, 7-Fluoro-4-(p-fluorophenyl)-2-methyl-1,2,3,4-tetrahydropyrrolo[3,4-b]indole] | 3.2 to 5.6 | > 10 |
| Cl.OC(CCCN1Cc2c(n(-c3ccc(F)cc3)c3ccc(F)cc23)C1)c1ccc(F)cc1 (centres unmarked) [F F p-FC6 H4 CH(CH2)3 --, 7-Fluoro-4-(p-fluorophenyl)-2-[4-(p-fluorophenyl)-4-hydroxybutyl]-1,2,3,4-tetrahydropyrrolo[3,4-b]indole hydrochloride] | 1 to 3.2 | 1 to 3.2 |
| CN(C)CCCN1c2ccccc2Sc2ccc(Cl)cc21 [chlorpromazine, reference compound] | > 10 |  |
